Patent publication US20220079912A1, “ANTICANCER FORMULATION” (University of Mississippi, priority 2018, published 2022)

How the values were obtained:
[1] = system: BNC3 patient derived Glioblastoma cells; test: Colony formation assay, combination with DHEA; assay type: cell-based, human; conditions: BNC3, 24 h, FIG. 20
[2] = system: cancer stem cells (CSCs) grown from BNC3 patient derived Glioblastoma cells; test: Cell viability by Trypan Blue exclusion cell count, combination with DHEA; assay type: cell-based, human; conditions: 24 h, FIGS. 21A-B
ARRDC4 mRNA = test: Differential gene expression analysis (RNA-Seq) in T98G cells; assay type: cell-based, human; conditions: 2 hours, GH 8 μM, 2-DG 25 mM, Ph 100, minus = reduced, plus = increase, NC = no change
Description: (§1) GH inhibits expression of TXNIP and ARRDC4 mRNAs. […] Since the transcription factors (MondoA/Mlx complex) regulating the expression of the TXNIP gene is thought to be controlled by intermediates in the upper portion of the glycolytic pathway (12), GH may be negatively impacting this portion of glycolysis. Reduction in the levels of these intermediates by GH would prevent activation of the MondoA/Mlx transcription complex and would result in suppression of TXNIP transcription and TXNIP mRNA levels. Both of these gene products (TXNIP and ARRDC4) are thought to suppress glucose transport by enhancing degradation of glucose transporters (12).

TXNIP mRNA = test: as above; assay type: cell-based, human; conditions: 2 hours, GH 8 μM, 2-DG 25 mM, Ph 100, minus = reduced, plus = increase, NC = no change
Description: as §1

SKOV-3 ovarian cancer = test: Colony formation assay, combination with DHEA; assay type: cell-based, human; conditions: SKOV-3, 24 h, FIG. 20
T98G cells [3] = test: Combination cytotoxicity with mitochondrial complex I inhibitors (% cell survival)
Description: Example 2: Gnetin H In Combination with Mitochondrial Complex I Inhibitors. […] The plus signs above the combination treatment bars indicates the value of % cell survival if the anti-proliferative effect was additive.
In FIGS. 9 A-B., the plus signs are placed above the combination treatment bars at the % cell survival value if the anti-proliferative effect was additive. […] Both T98G and MDA-MB-231 cells lack functional p53 but B16 are p53 wild type.
Example 4: Peony Seed extract. […] T98G cells were treated with different concentrations of purified GH (numbers indicate μM) or PSE (numbers indicate μg/ml) alone or in combination with a Paw Paw (PP) extract (2 μg/ml) for 48 hrs (FIG. 12 A). The plus signs are placed above the combination treatment bars at the % cell survival value if the anti-proliferative effect was additive. […] T98G cells were treated with different concentrations of purified GH or PSE in combination with a Paw Paw extract (2 μg/ml) for 48 hrs (FIG. 12 B).

BT-549 = test: Combination cytotoxicity with phenformin; assay type: cell-based; conditions: BT-549, data not shown
MDA-MB-231 cells = test: Glucose transport (2-NBDG accumulation); assay type: cell-based, human; conditions: MDA-MB-231, treated for one hour followed by 2-NBDG for one hour
Description: Phloretin, a known glucose transport inhibitor, was used as a positive control. Accumulation of 2-NDGB was inhibited by phloretin by 54% in T98G cells, by 31% in B16 cells and by 74% in MDA-MB-231 cells. The first panel for each cell line represents unstained cells, the second stained with 2-NBDG for one hour, the third treated with GH for one hour followed by 2-NBDG for one hour and the fourth treated with phloretin for one hour followed by 2-NBDG for one hour.

[4] = system: MDA-MB-231 breast cancer cells; test: Colony formation assay, combination with DHEA; assay type: cell-based, human; conditions: MDA-MB-231, 24 h, FIG. 20
T98G cells [5] = test: Apoptosis, annexin V/propidium iodide (PI) staining; assay type: cell-based, human; conditions: FIG. 10
Description: This additional target remains to be identified.

[6] = system: BNC16 patient derived Glioblastoma cells; test: Colony formation assay, combination with DHEA; assay type: cell-based, human; conditions: BNC16, 24 h, FIG. 20
B16 cells [7] = test: Lactic acid export (intracellular lactic acid levels); assay type: cell-based, mouse; conditions: FIG. 4
Experimental: To prevent the buildup of lactic acid within the cell a family of monocarboxylate transporters (MCT) functions to transport lactic acid out of the cell (10). To determine if GH inhibits lactic acid export from the cell, and in this manner inhibits the accumulation of lactic acid in the cell culture medium, intracellular lactic acid levels were measured. If GH inhibited lactic acid export, treatment of cells with GH would result in the increase in intracellular lactic acid levels. As a positive control the MCT1 inhibitor AZD3965 was used.

TXNIP protein levels [8] = test: Western blot of TXNIP protein, MDA-MB-231 cell line; assay type: cell-based, human; conditions: FIG. 16, FIG. 18
Description: (§2) AMPK activation has been previously shown to phosphorylate and cause the degradation of TXNIP during energy stress (13).

[9] = system: MDA-MB-231 human breast cancer cells; test: Lactic acid accumulation in cell culture medium; assay type: cell-based; conditions: MDA-MB-231, FIG. 2C
Description: (§3) During cell survival experiments the acidification of the cell culture medium was inhibited when GH was present. Acidification of the cell culture medium occurs because of the enhanced use of glycolysis by transformed cells (and resulting increase in lactic acid production). This led us to investigate whether GH reduced lactic acid levels in the cell culture medium.

B16 mouse melanoma cells = test: Lactic acid accumulation in cell culture medium; assay type: cell-based; conditions: B16, FIG. 2A
Description: as §3

TXNIP protein levels [10] = test: Western blot of TXNIP protein, T98G cell line; assay type: cell-based, human; conditions: FIG. 15, FIG. 17
Description: as §2

KHOS = test: Combination cytotoxicity with phenformin; assay type: cell-based; conditions: data not shown
T98G glioblastoma cells = test: Colony formation assay, combination with DHEA; assay type: cell-based, human; conditions: 12 h (other inhibitors 24 h), FIG. 19
Experimental: GH, a glycolysis inhibitor, is cytotoxic to human tumor cells when used in combination with a Glucose-6-Phosphate Dehydrogenase inhibitor, dehydroepiandrosterone, (DHEA). To compensate for high ROS levels, cancer cells increase glycolysis and pentose phosphate cycle to provide reducing equivalents (NADH and NADPH) to neutralize hydro peroxides (15). […] The other glycolysis inhibitors tested in combination with DHEA were ineffective even at 24 h.

KB (HeLa) = test: Combination cytotoxicity with phenformin; assay type: cell-based; conditions: data not shown
B16 cells [11] = test: Glucose transport (2-NBDG accumulation); assay type: cell-based, mouse; conditions: B16, treated for one hour followed by 2-NBDG for one hour
T98G cells [12] = test: Glucose transport (2-NBDG accumulation); assay type: cell-based, human; conditions: treated for one hour followed by 2-NBDG for one hour
[13] = GH 8 μM 6 hrs or 3 hrs, 2-DG 25 mM, OXA 25 mM, BPX 25 μM, DCA 25 mM, 6 hr

SMILES: Oc1ccc(/C=C/c2c3c(cc4c2[C@H](c2cc(O)cc(O)c2)[C@@H](c2ccc(O)cc2)O4)O[C@H](c2ccc(O)cc2)[C@H]3c2cc(O)cc(O)c2)cc1 (relative stereo) [GH, trans-Gnetin H]
- cytotoxicity in combination with DHEA (cell staining) [1]: cytotoxic
- cytotoxicity in combination with DHEA (percentage of cell viability) [2]: cytotoxic
- ARRDC4 mRNA fold change (ARRDC4 mRNA): −6 fold
- TXNIP mRNA fold change (TXNIP mRNA): −88 fold
- cytotoxicity in combination with DHEA (cell staining) (SKOV-3 ovarian cancer): cytotoxic
- synergistic cytotoxicity in combination with Paw Paw (PP) extract (2 μg/ml) (T98G cells [3]): exhibited synergistic cytotoxicity
- synergistic cytotoxicity in combination with acetogenins (PP) at 1 μg/ml (T98G cells [3]): synergistically cytotoxic
- IC50 in combination with PP (T98G cells [3]; T98G, Paw Paw extract 2 μg/ml, 48 hrs, FIG. 12 B): 1.3 µg/mL
- synergistic cytotoxicity with phenformin (BT-549): synergistically cytotoxic
- effect on accumulation of 2-NBDG (glucose transport) (MDA-MB-231 cells): did not influence the accumulation
- cytotoxicity in combination with DHEA (cell staining) [4]: cytotoxic
- induction of apoptosis in combination with Paw Paw extract (PP) (T98G cells [5]): extensive induction of apoptosis
- induction of apoptosis in combination with phenformin (Ph) (T98G cells [5]): extensive induction of apoptosis
- cytotoxicity in combination with DHEA (cell staining) [6]: cytotoxic
- effect on intracellular lactic acid (B16 cells [7]): did not increase intracellular lactic acid
- TXNIP protein levels, in combination with Ph (TXNIP protein levels [8]): reduction of TXNIP protein levels
- TXNIP protein levels, agent alone (TXNIP protein levels [8]; [13]): dramatic reduction in the levels of TXNIP protein
- lactic acid production [9]: inhibits lactic acid production
- lactic acid production (B16 mouse melanoma cells): inhibits lactic acid production
- TXNIP protein levels, in combination with Ph (TXNIP protein levels [10]): reduction of TXNIP protein levels
- TXNIP protein levels, agent alone (TXNIP protein levels [10]; [13]): dramatic reduction in the levels of TXNIP protein
- synergistic cytotoxicity with phenformin (KHOS): synergistically cytotoxic
- cytotoxicity in combination with DHEA (cell staining) (T98G glioblastoma cells): rapidly cytotoxic
- synergistic cytotoxicity with phenformin (KB (HeLa)): synergistically cytotoxic
- effect on accumulation of 2-NBDG (glucose transport) (B16 cells [11]): did not influence the accumulation
- effect on accumulation of 2-NBDG (glucose transport) (T98G cells [12]): did not influence the accumulation
